Test results published in article PMC4425616 (Nature medicine, 2015).
Read-outs that look alike come from different tables or passages of the source. One block for each compound: values may come before it.

What was measured:
Pin1 [1] = target: T1, Pin1 (Homo sapiens, UniProt Q13526); format: binding; conditions: incubation 0.5 hour
Pin1 [2] = target: T1, Pin1; assay: Immunostaining of bone marrow of APL patients treated with ATRA; format: in vivo
PML-RARα [3] = assay: Immunoblotting for PML-RARα in NB4 cells; format: cell-based, human; conditions: 72 h
[4] = test system: APL cells isolated from hCG-PML-RARα transgenic mice; conditions: 3 weeks treatment
Pin1 [5] = target: Pin1 (Mus musculus, UniProt Q9QUR7); assay: Pin1 protein, mRNA and half-life in MEFs; format: cell-based; conditions: for Pin1 protein half-life: 50 μM, 24 h, cycloheximide chase
Sequence of Pin1 (Mus musculus, UniProt Q9QUR7) (Q9QUR7 whole entry): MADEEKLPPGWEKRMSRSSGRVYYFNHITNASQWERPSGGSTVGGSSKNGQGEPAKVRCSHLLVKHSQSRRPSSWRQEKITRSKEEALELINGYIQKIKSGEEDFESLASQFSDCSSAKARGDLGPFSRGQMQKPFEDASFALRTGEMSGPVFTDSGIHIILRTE

SKBR3 cells = assay: Foci formation assay; format: cell-based; conditions: 48 h
MDA-MB-468 cells = assay: MDA-MB-468 xenograft in nude mice; format: in vivo; conditions: ATRA-releasing pellets
cyclin D1 promoter = assay: Cyclin D1 promoter-driven luciferase reporter assay; format: cell-based; conditions: SKBR3 cells, 72 h
[6] = standard doses in human patients; cited from earlier work
HMLE cells = assay: Colorimetric MTT assay; format: cell-based, human; conditions: 72 h
MDA-MB-231 cells = assay: MDA-MB-231 xenograft in nude mice; format: in vivo
FKBP12 = FKBP12 (Homo sapiens, UniProt P62942); assay: Chymotrypsin coupled PPIase activity assay; format: biochemical
Sequence of FKBP12 (P62942 whole entry, species assumed): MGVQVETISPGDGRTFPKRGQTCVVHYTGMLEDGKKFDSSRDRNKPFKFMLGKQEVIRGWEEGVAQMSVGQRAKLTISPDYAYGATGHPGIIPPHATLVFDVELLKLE

MCF10A cells = assay: Colorimetric MTT assay; format: cell-based, human; conditions: 72 h
Pin1 KO MEFs = assay: MTT cell growth assay; format: cell-based, mouse; conditions: 72 h, compared with WT MEFs
[7] = test system: Pin1 and its substrate oncogenes and tumor suppressors; format: cell-based, human; conditions: 72 hr
Pin1 WT MEFs = assay: MTT cell growth assay; format: cell-based, mouse; conditions: 72 h
PML-RARα [8] = assay: Immunostaining of bone marrow of APL patients treated with ATRA; format: in vivo, human
NIH 3T3 cells = assay: Centrosome amplification induced by Pin1 overexpression; format: cell-based; conditions: 72 h
cyclophilin = assay: Chymotrypsin coupled PPIase activity assay; format: biochemical
Pin1 [9] = target: T1, Pin1; assay: Photoaffinity labeling of Pin1 with [3H]ATRA; format: binding; conditions: SDS gels
human APL NB4 cells = assay: APL cell differentiation; format: cell-based; conditions: 72 h
Pin1 [10] = target: T1, Pin1; assay: Immunoblotting for Pin1 in NB4 cells; format: cell-based; conditions: 72 h
breast cancer cells = assay: Growth and Pin1 degradation in breast cancer cells, combinations with ATRA; format: cell-based, human
Pin1 [11] = target: T1, Pin1; conditions: cited from earlier work
[12] = target: FKBP12 (FK506-binding protein 12) (Homo sapiens, UniProt P62942); assay: Binding of fluorescently-labeled pTide to FKBP12
Sequence of FKBP12 (FK506-binding protein 12) (P62942 whole entry, species assumed): as above

Pin1 [13] = target: T1, Pin1; assay: Binding of
[14] = three ATRA-sensitive cancer cell lines

T1 sequence (Q13526 whole entry): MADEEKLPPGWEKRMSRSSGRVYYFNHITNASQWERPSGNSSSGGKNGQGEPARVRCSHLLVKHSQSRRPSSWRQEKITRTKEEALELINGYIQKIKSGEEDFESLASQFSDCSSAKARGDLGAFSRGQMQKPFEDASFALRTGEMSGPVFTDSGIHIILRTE

- Pin1 binding (FP assay) (Pin1 [1]): totally inactive
Compound: CC1=C(/C=C/C(C)=C/C=C/C(C)=C/C=O)C(C)(C)CCC1 [retinal]

- Pin1 remaining after treatment (Pin1 [2]; 3 days of ATRA treatment): ~ 40%
- Pin1 remaining after treatment (Pin1 [2]; 10 days of ATRA treatment): < 10%
- Pin1 protein half-life (Pin1 [5]): reduced Pin1 protein half-life
- Pin1 mRNA levels (Pin1 [5]; 72 h, quantitative RT-PCR): no obvious effects
- Pin1 protein abundance (Pin1 [5]; WT Pin1, 72 h, immunoblotting): dose-dependently down-regulated
- inhibition of Pin1-induced activation of the cyclin D1 promoter (cyclin D1 promoter): dose-dependently and fully inhibited
- Pin1 binding (FP assay) (Pin1 [1]): most potent
- inhibition of FKBP12 PPIase activity (FKBP12): neither inhibited
- inhibition of cyclophilin PPIase activity (cyclophilin): neither inhibited
Compound: CC1=C(/C=C/C(C)=C/C=C/C(C)=C/C(=O)O)C(C)(C)CCC1 [ATRA, all-trans retinoic acid]
- PML-RARα abundance (PML-RARα [3]): dose-dependently reduced PML-RARα
- PML-RARα in the bone marrow [4]: effectively reduced PML-RARα in the bone marrow
- Pin1 levels in the bone marrow [4]: reduced Pin1 levels in the bone marrow
- spleen weights [4]: spleen weights nearly at basal levels
- inhibition of Pin1-enhanced foci formation (SKBR3 cells): dose-dependently and fully inhibited
- abundance of Pin1 and cyclin D1 in tumors (MDA-MB-468 cells): reduced abundance of Pin1 and its substrate cyclin D1
- drug concentration produced [6]: 1200 nM
- cell proliferation, susceptibility to ATRA (HMLE cells): highly resistant to ATRA
- antitumor activity (MDA-MB-231 cells; 33.0 μmol/kg intraperitoneally 3 times a week for 8 weeks): only modest antitumor activity
- growth of tumors from MDA-MB-231 cells stably expressing Pin1 (MDA-MB-231 cells; ATRA implants for 7 weeks): effectively inhibited by ATRA in a dose-dependent manner
- abundance of Pin1 and cyclin D1 in tumors (MDA-MB-231 cells; ATRA-releasing pellets): reduced abundance of Pin1 and its substrate cyclin D1
- cell proliferation, susceptibility to ATRA (MCF10A cells): highly resistant to ATRA
- inhibition of growth (Pin1 KO MEFs): more resistant to ATRA
- effects on Pin1 and substrate proteins ([7]; MCF10A cells): no appreciable effects
- abundance of Pin1 and substrate oncogenes (cyclin D1, HER2, ERα, Akt, NFκB p65, c-Jun, PKM2) [7, 14]: dose-dependent decrease in abundance of Pin1 and its substrate oncogenes
- abundance of Pin1 substrate tumor suppressors (Smad2/3, SMRT) [7, 14]: increase in abundance of Pin1 substrate tumor suppressors
- inhibition of growth (Pin1 WT MEFs): Relatively high concentrations of ATRA were required
- PML-RARα remaining after treatment (PML-RARα [8]; 3 days of ATRA treatment): ~ 40%
- PML-RARα remaining after treatment (PML-RARα [8]; 10 days of ATRA treatment): < 10%
- inhibition of Pin1 overexpression-induced centrosome amplification (NIH 3T3 cells): dose-dependently and fully inhibited

- Pin1 protein half-life (Pin1 [5]): reduced Pin1 protein half-life
- inhibition of FKBP12 PPIase activity (FKBP12): neither inhibited
- inhibition of cyclophilin PPIase activity (cyclophilin): neither inhibited
Compound: CC1=C(/C=C/C(C)=C/C=C/C(C)=C\C(=O)O)C(C)(C)CCC1 [13cRA, 13-cis-retinoic acid]

- Pin1 binding (FP assay) (Pin1 [1]): totally inactive
Compound: CC1=C(/C=C/C(C)=C/C=C/C(C)=C/CO)C(C)(C)CCC1 [retinol]

- Kd (Pin1 [9]): 0.8 µM
Compound: CC1=C(/C=C/C(C)=C/C=C/C(C)=C/C(=O)O)C(C)(C)CCC1 [[^3H]-ATRA, all-trans-[11,12-3H]retinoic acid]

- Pin1 binding (FP assay) (Pin1 [1]): only marginal Pin1 binding
Compound: C=C(c1ccc(C(=O)O)cc1)c1cc2c(cc1C)C(C)(C)CCC2(C)C [bexarotene]

Compound: O=C(O[C@@H]1Cc2c(O)cc(O)cc2O[C@@H]1c1cc(O)c(O)c(O)c1)c1cc(O)c(O)c(O)c1 [EGCG]
- induction of APL cell differentiation (human APL NB4 cells): neither Pin1 inhibitors nor Pin1 shRNA induced human APL cell differentiation
- PML-RARα abundance (PML-RARα [3]): dose-dependently reduced PML-RARα
- PML-RARα in the bone marrow [4]: effectively reduced PML-RARα in the bone marrow
- condition of treated mice [4]: rather sick
- spleen weights [4]: spleen weights nearly at basal levels
- Pin1 abundance (Pin1 [10]): inhibited Pin1 without degrading it

- Pin1 binding (FP assay) (Pin1 [1]): minimal Pin1 binding
Compound: CCCCCCCOc1cc2c(cc1/C(C)=C/c1ccc(C(=O)O)cc1)C(C)(C)CCS2(=O)=O [Ro-415253]
- effect on the ability of ATRA to induce Pin1 degradation or inhibit proliferation (breast cancer cells): neither had obvious effects

- Pin1 binding (FP assay) (Pin1 [1]): only marginal Pin1 binding
Compound: CC1=C(/C=C/C(C)=C/C=C/C(C)=C/C(=O)Nc2ccc(O)cc2)C(C)(C)CCC1 [fenretinide]

Compound: Clc1cccc(C(c2ccc3[nH]cnc3c2)n2ccnc2)c1 (centres unmarked) [liarazole]
- effect in combination with ATRA on cell growth (breast cancer cells): generally additive effects with ATRA

- binding of fluorescently-labeled pTide to FKBP12 [12]: not to FKBP12
- binding of fluorescently-labeled pTide to Pin1 (Pin1 [13]): bound to Pin1
Compound: Bth-D-phos.Thr-Pip-Nal [pTide]
- Kd (Pin1 [11]): 0.0012 µM

Compound: O=C1C=CC(=O)c2c(O)cccc21 [Juglone]
- induction of APL cell differentiation (human APL NB4 cells): neither Pin1 inhibitors nor Pin1 shRNA induced human APL cell differentiation
- PML-RARα abundance (PML-RARα [3]): dose-dependently reduced PML-RARα
- PML-RARα in the bone marrow [4]: effectively reduced PML-RARα in the bone marrow
- condition of treated mice [4]: rather sick
- spleen weights [4]: spleen weights nearly at basal levels
- Pin1 abundance (Pin1 [10]): inhibited Pin1 without degrading it

- Pin1 abundance (Pin1 [10]): inhibited Pin1 without degrading it
Compound: CCOC(=O)CN1C(=O)c2ccc3c4c(ccc(c24)C1=O)C(=O)N(CC(=O)OCC)C3=O [PiB]
- induction of APL cell differentiation (human APL NB4 cells): neither Pin1 inhibitors nor Pin1 shRNA induced human APL cell differentiation
- PML-RARα abundance (PML-RARα [3]): dose-dependently reduced PML-RARα

- Pin1 binding (FP assay) (Pin1 [1]): totally inactive
Compound: CC(=O)OC/C=C(C)/C=C/C=C(C)/C=C/C1=C(C)CCCC1(C)C [retinyl acetate]
